Legend:
Assay type in all cases: in vivo, Plasmodium berghei
P. berghei ANKA strain [1] = assay: treatment: 3x10 mg/kg p.o. divided dose vs 1x30 mg/kg po single dose in infected mice; conditions: for Activity (%) p.o. SSV: percent reduction of parasitemia day 4; for Cures: 1 × 30 mg/kg, survival to day 30 post-infection = cure, cured/treated mice
Protocol: Moro NMRI male mice (Fü Albino specific pathogen free) weighing 18±2 g were infected intravenously (i.v.) with 2×10^7 P. berghei ANKA strain-infected erythrocytes from donor mice on day 0 of the experiment. From donor mice with circa 30% parasitemia, heparinized blood was taken and diluted in physiological saline to 10^8 parasitized erythrocytes per ml. An aliquot (0.2 ml) of this suspension was injected i.v. into experimental and control groups of mice. […] Throughout the experiments, mice were kept in groups of three or five animals in Makrolon type II cages in an air-conditioned animal room at 22 to 23° C.
They were administered per os (p.o.) in a total volume of 0.01 ml per gram of mouse. The activity of the compound was determined by a variety of methods outlined in subsequent sections. Survival time was also recorded, and survival to day 30 post-infection was considered to be a cure.
The first experiment conducted consisted of administration of a divided 3×10 mg/kg p.o. dose administered on days 1, 2, and 3 post-infection vs. a single 1×30 mg/kg po dose administered on day 1 post-infection. On day 4 post-infection, blood smears of all animals were prepared and stained with Giemsa. […] Compounds were administered orally in the SSV vehicle.

P. berghei ANKA strain [2] = assay: treatment: 3x3 mg/kg and 3x1 mg/kg po divided doses in infected mice; conditions: for Activity (%) p.o. SSV: percent reduction of parasitemia day 4
Protocol: (§1) Moro NMRI male mice (Fü Albino specific pathogen free) weighing 18±2 g were infected intravenously (i.v.) with 2×10^7 P. berghei ANKA strain-infected erythrocytes from donor mice on day 0 of the experiment. From donor mice with circa 30% parasitemia, heparinized blood was taken and diluted in physiological saline to 10^8 parasitized erythrocytes per ml. An aliquot (0.2 ml) of this suspension was injected i.v. into experimental and control groups of mice. In untreated control mice, parasitemia rose regularly to 40 to 50% by day 3 post-infection and 70 to 80% by day 4 post-infection. The mice died between days 5 and 7 post-infection. Throughout the experiments, mice were kept in groups of three or five animals in Makrolon type II cages in an air-conditioned animal room at 22 to 23° C. A diet with p-aminobenzoic acid (PABA) of 45 mg (NAFAG FUTTER© food N^o 9009 PAB-45) per kg of body weight, and tap water is available ad libitum.
(§2) OZ compounds were prepared at an appropriate concentration, either as a solution or a suspension containing SSV (0.5% w/v CMC, 0.5% v/v benzyl alcohol, 0.4% v/v Tween 80, and 0.9% w/v sodium chloride in water). They were administered per os (p.o.) in a total volume of 0.01 ml per gram of mouse. The activity of the compound was determined by a variety of methods outlined in subsequent sections. Survival time was also recorded, and survival to day 30 post-infection was considered to be a cure.
The second experiment consists of administration of divided 3×3 mg/kg and 3×1 mg/kg po doses administered on days 1, 2, and 3 post-infection. On day 4 post-infection, blood smears of all animals were prepared and stained with Giemsa. Parasitemia was determined microscopically, and the difference between the mean value of the control group (taken as 100%) and those of the experimental groups was calculated and expressed as percent reduction. Compounds were administered orally in the SSV vehicle.

P. berghei ANKA strain [3] = assay: prophylactic activity, single 100 mg/kg po dose before infection; conditions: reduction of parasitemia day 3 post-infection
Protocol: as §1, §2
Prophylactic activities of the compounds were compared after administering po single dose of 100 mg/kg to different groups of five animals at various times before infection. All groups including an untreated control group, were then infected at the same time. Parasitemia was determined for each animal on day 3 post-infection, and percent of reduction of the level of parasitemia compared to levels for animals given no drug is determined.

[4] = 1 × 30 mg/kg single dose day 1 post-infection
[5] = 3 × 10 mg/kg days 1, 2, 3 post-infection
[6] = 3 × 1 mg/kg days 1, 2, 3 post-infection
[7] = 3 × 3 mg/kg days 1, 2, 3 post-infection
[8] = single 100 mg/kg po 24 h before infection
[9] = single 100 mg/kg po 48 h before infection
[10] = single 100 mg/kg po 72 h before infection

Structure (SMILES) | Survival (days) p.o. SSV (P. berghei ANKA strain [1]; [4]) [days] | Activity (%) p.o. SSV (P. berghei ANKA strain [1]; [4]) [%] | Cures (P. berghei ANKA strain [1]) | Survival (days) p.o. SSV (P. berghei ANKA strain [1]; [5]) [days] | Activity (%) p.o. SSV (P. berghei ANKA strain [1]; [5]) [%] | Survival (days) p.o. SSV (P. berghei ANKA strain [2]; [6]) [days] | Activity (%) p.o. SSV (P. berghei ANKA strain [2]; [6]) [%] | Survival (days) p.o. SSV (P. berghei ANKA strain [2]; [7]) [days] | Activity (%) p.o. SSV (P. berghei ANKA strain [2]; [7]) [%] | Prophylactic Activity (%) (P. berghei ANKA strain [3]; [8]) | Prophylactic Activity (%) (P. berghei ANKA strain [3]; [9]) | Prophylactic Activity (%) (P. berghei ANKA strain [3]; [10]) | Prophylactic Activity (%) (P. berghei ANKA strain [3]; single 100 mg/kg po at 0 h)
CC(C)(N)CNC(=O)CC1CCC2(CC1)OOC1(O2)C2CC3CC(C2)CC1C3.Cc1ccc(S(=O)(=O)O)cc1 (stereo not shown) [compound 277] | 10.4 | 99.92 | 0/5 | 27.6 | 100 | 9.4 | 83 | 14 | 100 | 25 | 7 | 9 | 100
Cc1ccc(S(=O)(=O)O)cc1.O=C(CC1CCC2(CC1)OOC1(O2)C2CC3CC(C2)CC1C3)N1CCNCC1 (stereo not shown) [compound 279] | 14.8 | 99.95 | 0/5 | 25.4 | 100 | 8.8 | 83 | 14.8 | 100 | 97 | 27 | 14 | 100
CC(C)(N)C(=O)NCC1CCC2(CC1)OOC1(O2)C2CC3CC(C2)CC1C3 (stereo not shown) [compound 281] |  |  |  |  |  | 13 | 92 | 12.4 | 100 | 99.23 | 45 | 8 | 100
CS(=O)(=O)O.c1cc(OCC2CCC3(CC2)OOC2(O3)C3CC4CC(C3)CC2C4)ccn1 (stereo not shown) [compound 301] |  |  |  | >30 | 100 | 8.8 | 58 | 23 | 100 |  |  |  | 
Cc1ccc(S(=O)(=O)O)cc1.NC1CCC(NC(=O)CC2CCC3(CC2)OOC2(O3)C3CC4CC(C3)CC2C4)CC1 (stereo not shown) [compound 315] |  |  |  | >30 | 100 | 12.2 | 81 | 22 | 99.99 |  |  |  | 
